Target: T1, KCNQ 2/3 channels (HEK293 cells stably expressing human KCNQ2 and KCNQ3 subunits) (Homo sapiens, UniProt O43525+O43526)
T1 construct: expressed in transfected cells; host or cells: HEK293
Experiment: KCNQ2/3 channel activation, thallium flux FLIPR assay with BTC-AM dye
Format: cell-based
Conditions: for Emax: HEK293, maximum response relative to the response produced by 10 μM retigabine (set at 100%), read-out: Max. %; for EC50: HEK293 cells expressing human KCNQ2 and KCNQ3, thallium flux, FLIPR
Protocol: The following example describes the assay that can be used to identify compounds that activate KCNQ 2/3 channels.
HEK293 cells stably expressing human KCNQ2 and KCNQ3 subunits were seeded in 96-well, black-walled, clear-bottomed, poly-D-lysine coated plates (BD Biosciences, Bedford, Mass.) at a density of 1×10^5 cells per well 24 hours before the assay. On the assay day, BTC-AM dye (Invitrogen, Carlsbad, Calif.) was loaded into the cells by replacing the cell culture medium with 55 μL/well of 3 μg/mL dye in DPBS. Dye loading was allowed to proceed for 2 hours at room temperature and then cells were washed twice with 50 μL/well of assay buffer (in mM: 10 HEPES pH 7.3, 5 glucose, 140 Na-gluconate, 2.5 K-gluconate, 3.6 Ca-gluconate, 2 MgSO4, 0.1 Ouabain) to remove unloaded dye. Cells were incubated in 50 μL of assay buffer before loading onto a FLIPR system (Molecular Devices, Sunnyvale, Calif.). Various concentrations of compounds to be assayed were added to the cells in 50 μL of assay buffer and incubated for 4 minutes. The fluorescence signal was initiated by adding 100 μL of assay buffer containing 6 mM TlNO3 and 10 mM K2SO4. Fluors were excited using the 488-nm line of an argon laser and emission was filtered using a 540±30 nm bandpass filter. Fluorescent signals were recorded for 3 minutes. Sums of the responses over basal responses were plotted versus concentrations of test compounds to obtain an EC50 value. The maximum response for each test compound was determined relative to the response produced by 10 μM retigabine. The maximum response of retigabine at 10 μM was set at 100%.

Row | Emax [%] | EC50 [nM] | SMILES
1 | 156 | 100 to 500 | Cc1ccc(-c2nn(NC(=O)C[C@@H]3C[C@@H]4C=C[C@H]3C4)c(=O)c3ccccc23)c(C)c1 [Example 159, 2-[(1S,2S,4S)-bicyclo[2.2.1]hept-5-en-2-yl]-N-[4-(2,4-dimethylphenyl)-1-oxophthalazin-2(1H)-yl]acetamide]
2 | 201 | 1000 to 10000 | O=C(Cc1ccc2ccccc2c1)Nn1nc(-c2ccc(Cl)cc2)c2ccccc2c1=O [Example 121, N-[4-(4-chlorophenyl)-1-oxophthalazin-2(1H)-yl]-2-(2-naphthyl)acetamide]
3 | 154 | < 100 | O=C(CC1CC2CCC1C2)Nn1nc(-c2ccc(Cl)cc2)c2c(F)ccc(F)c2c1=O (racemic) [Example 184, (±)-2-(exo-bicyclo[2.2.1]hept-2-yl)-N-[4-(4-chlorophenyl)-5,8-difluoro-1-oxophthalazin-2(1H)-yl]acetamide]
4 | 140 | < 100 | O=C(CC12CC3CC(CC(C3)C1)C2)Nn1nc(-c2ccccc2)c2c(F)ccc(F)c2c1=O [Example 15, 2-(1-adamantyl)-N-(5,8-difluoro-1-oxo-4-phenylphthalazin-2(1H)-yl)acetamide]
5 | 130 | < 100 | Cc1ccc(-c2nn(NC(=O)Cc3cc(F)cc(F)c3)c(=O)c3ccccc23)cc1 [Example 136, 2-(3,5-difluorophenyl)-N-[4-(4-methylphenyl)-1-oxophthalazin-2(1H)-yl]acetamide]
6 | 104 | 500 to 1000 | O=C(CC1(C(F)(F)F)CCCC1)Nn1nc(-c2ccc(Cl)cc2)c2ccccc2c1=O [Example 87, N-[4-(4-chlorophenyl)-1-oxophthalazin-2(1H)-yl]-2-[1-(trifluoromethyl)cyclopentyl]acetamide]
7 | 137 | 100 to 500 | O=C(CC1CC2CCC1C2)Nn1nc(C(F)(F)F)c2ccccc2c1=O (racemic) [Example 58, (±)-2-(exo-bicyclo[2.2.1]heptan-2-yl)-N-[1-oxo-4-(trifluoromethyl)phthalazin-2(1H)-yl]acetamide]
8 | 13 | > 10000 | COc1ccc(-c2nn(NC(=O)CC34CC5CC(CC(C5)C3)C4)c(=O)c3ccc(Br)cc23)cc1 [Example 175, 2-(adamantan-1-yl)-N-[6-bromo-4-(4-methoxyphenyl)-1-oxophthalazin-2(1H)-yl]acetamide]
9 | 144 | < 100 | O=C(CC12CC3CC(CC(C3)C1)C2)Nn1nc(-c2ccccc2)c2c(c1=O)CCCC2 [Example 185, 2-(adamantan-1-yl)-N-(1-oxo-4-phenyl-5,6,7,8-tetrahydrophthalazin-2(1H)-yl)acetamide]
10 | 140 | 100 to 500 | O=C(Cc1cccc(Cl)c1)Nn1nc(-c2ccc(Cl)cc2)c2ccccc2c1=O [Example 103, 2-(3-chlorophenyl)-N-[4-(4-chlorophenyl)-1-oxophthalazin-2(1H)-yl]acetamide]
11 | 82 | 1000 to 10000 | O=C(Cc1ccc(Cl)cc1)Nn1nc(Cl)c2ccccc2c1=O [Example 21, N-(4-chloro-1-oxophthalazin-2(1H)-yl)-2-(4-chlorophenyl)acetamide]
12 | 95 | 100 to 500 | Cc1ccc(-c2nn(NC(=O)Cc3ccc(Cl)cc3)c(=O)c3ccccc23)cc1 [Example 135, 2-(4-chlorophenyl)-N-[4-(4-methylphenyl)-1-oxophthalazin-2(1H)-yl]acetamide]
13 | 173 | 100 to 500 | O=C(CC12CC3CC(CC(C3)C1)C2)Nn1nc(-c2ccccc2)c2ccsc2c1=O [Example 29, 2-(1-adamantyl)-N-(7-oxo-4-phenylthieno[2,3-d]pyridazin-6(7H)-yl)acetamide]
14 | 144 | < 100 | COC(=O)c1ccc(-c2nn(NC(=O)C[C@H]3C[C@@H]4CC[C@H]3C4)c(=O)c3ccccc23)cc1 (racemic) [Example 79, (±)-methyl 4-(3-{[exo-bicyclo[2.2.1]hept-2-ylacetyl]amino}-4-oxo-3,4-dihydrophthalazin-1-yl)benzoate]
15 | 112 | 100 to 500 | Cc1ccc(-c2nn(NC(=O)Cc3ccc(Cl)cc3)c(=O)c3ccccc23)cc1C [Example 165, 2-(4-chlorophenyl)-N-[4-(3,4-dimethylphenyl)-1-oxophthalazin-2(1H)-yl]acetamide]
16 | 156 | < 100 | O=C(C[C@@H]1C[C@@H]2C=C[C@H]1C2)Nn1nc(-c2ccc(F)cc2)c2ccccc2c1=O [Example 130, 2-[(1S,2S,4S)-bicyclo[2.2.1]hept-5-en-2-yl]-N-[4-(4-fluorophenyl)-1-oxophthalazin-2(1H)-yl]acetamide]

Second part, the compound before the results:

Row | SMILES | Emax [%] | EC50 [nM]
17 | O=C(CC12CC3CC(CC(C3)C1)C2)Nn1nc(-c2ccccc2)c2cc(F)ccc2c1=O [Example 37, 2-(1-adamantyl)-N-(6-fluoro-1-oxo-4-phenylphthalazin-2(1H)-yl)acetamide] | 179 | < 100
18 | O=C(Cc1cc(F)cc(F)c1)Nn1nc(C2CCC2)c2ccccc2c1=O [Example 69, N-(4-cyclobutyl-1-oxophthalazin-2(1H)-yl)-2-(3,5-difluorophenyl)acetamide] | 138 | < 100
19 | CC(C)c1nn(NC(=O)Cc2ccc(Cl)cc2)c(=O)c2ccccc12 [Example 1, 2-(4-chlorophenyl)-N-(4-isopropyl-1-oxophthalazin-2(1H)-yl)acetamide] | 125 | 100 to 500
20 | Cc1nn(NC(=O)Cc2cc(F)cc(F)c2)c(=O)c2ccccc12 [Example 38, 2-(3,5-difluorophenyl)-N-(4-methyl-1-oxophthalazin-2(1H)-yl)acetamide] | 126 | > 10000
21 | O=C(CC12CC3CC(CC(Br)(C3)C1)C2)Nn1nc(-c2ccccc2)c2ccsc2c1=O [Example 178, 2-(3-bromoadamantan-1-yl)-N-(7-oxo-4-phenylthieno[2,3-d]pyridazin-6(7H)-yl)acetamide] | 56 | > 10000
22 | Cc1ccc(-c2nn(NC(=O)Cc3cc(F)cc(F)c3)c(=O)c3ccccc23)cc1C [Example 166, 2-(3,5-difluorophenyl)-N-[4-(3,4-dimethylphenyl)-1-oxophthalazin-2(1H)-yl]acetamide] | 161 | 100 to 500
23 | O=C(CC12CC3CC(CC(C3)C1)C2)Nn1nc(C2CCCCC2)c2ccccc2c1=O [Example 75, 2-(adamantan-1-yl)-N-(4-cyclohexyl-1-oxophthalazin-2(1H)-yl)acetamide] | 243 | < 100
24 | CC(C)(C)c1nn(NC(=O)CC(C)(C)c2ccccc2)c(=O)c2ccccc12 [Example 64, N-(4-tert-butyl-1-oxophthalazin-2(1H)-yl)-3-methyl-3-phenylbutanamide] | 157 | < 100
25 | O=C(CCc1ccccc1)Nn1nc(C(F)(F)F)c2ccccc2c1=O [Example 50, N-[1-oxo-4-(trifluoromethyl)phthalazin-2(1H)-yl]-3-phenylpropanamide] | 116 | > 10000
26 | O=C(Cc1ccc(Cl)cc1)Nn1nc(-c2ccccc2)c2c(c1=O)CCC2 [Example 190, 2-(4-chlorophenyl)-N-(1-oxo-4-phenyl-1,5,6,7-tetrahydro-2H-cyclopenta[d]pyridazin-2-yl)acetamide] | 124 | 1000 to 10000
27 | COc1ccc(-c2nn(NC(=O)CC34CC5CC(CC(C5)C3)C4)c(=O)c3ccccc23)cc1 [Example 154, 2-(adamantan-1-yl)-N-[4-(4-methoxyphenyl)-1-oxophthalazin-2(1H)-yl]acetamide] | 136 | < 100
28 | O=C(Cc1cc(F)cc(F)c1)Nn1nc(Cc2ccc(Cl)cc2)c2ccccc2c1=O [Example 146, N-[4-(4-chlorobenzyl)-1-oxophthalazin-2(1H)-yl]-2-(3,5-difluorophenyl)acetamide] | 83 | 100 to 500
29 | O=C(CCC(F)(F)F)Nn1nc(-c2ccc(Cl)cc2)c2ccccc2c1=O [Example 123, N-[4-(4-chlorophenyl)-1-oxophthalazin-2(1H)-yl]-4,4,4-trifluorobutanamide] | 48 | 500 to 1000
30 | O=C(CC12CC3CC(CC(C3)C1)C2)Nn1nc(-c2ccccc2)c2c(c1=O)CCC2 [Example 189, 2-(adamantan-1-yl)-N-(1-oxo-4-phenyl-1,5,6,7-tetrahydro-2H-cyclopenta[d]pyridazin-2-yl)acetamide] | 152 | 100 to 500
31 | O=C(CSC12CC3CC(CC(C3)C1)C2)Nn1nc(-c2ccccc2)c2ccccc2c1=O [Example 193, 2-(adamantan-1-ylthio)-N-(1-oxo-4-phenylphthalazin-2(1H)-yl)acetamide] | 161 | 100 to 500
32 | CN(C)C(=O)c1ccc(-c2nn(NC(=O)CC3CC4CCC3C4)c(=O)c3ccccc23)cc1 (racemic) [Example 81, (±)-4-(3-{[exo-bicyclo[2.2.1]hept-2-ylacetyl]amino}-4-oxo-3,4-dihydrophthalazin-1-yl)-N,N-dimethylbenzamide] | 50 | > 10000

— patent US8629143B2, “Potassium channel modulators” (AbbVie Inc., priority 2009, dated 2014)
